Assay results taken from ChEMBL document CHEMBL5724914, “Linking interpersonal differences in gut microbiota composition and drug biotransformation activity” (2024).

Columns and labels:
[1] = human gut metagenome, 24 h, 2 µM
[2] = (§1) The drug is tested on Z-024 corresponding to pig gut metagenome with ENA study accession number: PRJEB37062 and ENA sample accession number: ERS12561823 for biotransformation under anaerobic condition. The drug concentrations were measured over 9 timepoints collected between 0 and 24 hours of incubation by liquid-chromatography-coupled mass spectrometry (LC–MS); conditions: 2 µM
[3] = human gut metagenome, 24 h, 2 µM; remark: listed apart in the source
[4] = as §1, with “WLS-038” for “Z-024”, “human” for “pig”, “ERS12561745” for “ERS12561823”; conditions: 2 µM
[5] = human gut metagenome, 24 h, 2 µM; remark: listed apart in the source
[6] = as §1, with “Z-012” for “Z-024”, “to” for “to pig gut”, “ERS12561812” for “ERS12561823”; conditions: 2 µM
[7] = human gut metagenome, 24 h, 2 µM; remark: listed apart in the source
[8] = human gut metagenome, 24 h, 2 µM; remark: listed apart in the source
[9] = as §1, with “Z-002” for “Z-024”, “rabbit” for “pig”, “ERS12561802” for “ERS12561823”; conditions: 2 µM
[10] = as §1, with “Z-029” for “Z-024”, “rat” for “pig”, “ERS12561828” for “ERS12561823”; conditions: 2 µM
[11] = as §1, with “Z-016” for “Z-024”, “mouse” for “pig”, “ERS12561815” for “ERS12561823”; conditions: 2 µM
[12] = human gut metagenome, 24 h, 2 µM; remark: listed apart in the source
[13] = as §1, with “Z-027” for “Z-024”, “to” for “to pig gut”, “ERS12561826” for “ERS12561823”; conditions: 2 µM
[14] = human gut metagenome, 24 h, 2 µM; remark: listed apart in the source
[15] = as §1, with “WLS-240” for “Z-024”, “human” for “pig”, “ERS12561773” for “ERS12561823”; conditions: 2 µM
[16] = human gut metagenome, 24 h, 2 µM; remark: listed apart in the source
[17] = as §1, with “Z-011” for “Z-024”, “mouse” for “pig”, “ERS12561811” for “ERS12561823”; conditions: 2 µM
[18] = human gut metagenome, 24 h, 2 µM; remark: listed apart in the source
[19] = as §1, with “WLS-098” for “Z-024”, “human” for “pig”, “ERS12561754” for “ERS12561823”; conditions: 2 µM
[20] = as §1, with “WLS-069” for “Z-024”, “human” for “pig”, “ERS12561748” for “ERS12561823”; conditions: 2 µM
Further: call rule not given here.

Compound	Bacterial Biotransformation [1]	Bacterial Biotransformation [2]	Bacterial Biotransformation [3]	Bacterial Biotransformation [4]	Bacterial Biotransformation [5]	Bacterial Biotransformation [6]	Bacterial Biotransformation [7]	Bacterial Biotransformation [8]	Bacterial Biotransformation [9]	Bacterial Biotransformation [10]	Bacterial Biotransformation [11]	Bacterial Biotransformation [12]	Bacterial Biotransformation [13]	Bacterial Biotransformation [14]	Bacterial Biotransformation [15]	Bacterial Biotransformation [16]	Bacterial Biotransformation [17]	Bacterial Biotransformation [18]	Bacterial Biotransformation [19]	Bacterial Biotransformation [20]
CCCN1C[C@H](CSC)C[C@@H]2c3cccc4[nH]cc(c34)C[C@H]21.CS(=O)(=O)O [PERGOLIDE MESYLATE]	Compound NOT metabolized	Compound NOT metabolized	Compound NOT metabolized	Compound NOT metabolized	Compound NOT metabolized	Compound NOT metabolized	Compound NOT metabolized	Compound NOT metabolized	Compound NOT metabolized	Compound NOT metabolized	Compound NOT metabolized	Compound NOT metabolized	Compound NOT metabolized	Compound NOT metabolized	Compound NOT metabolized	Compound NOT metabolized	Compound NOT metabolized	Compound NOT metabolized	Compound NOT metabolized	Compound NOT metabolized
CC(C)(C)N.CCC[C@H](N[C@@H](C)C(=O)N1[C@H](C(=O)O)C[C@@H]2CCCC[C@@H]21)C(=O)OCC [PERINDOPRIL ERBUMINE]	Compound metabolized	Compound metabolized	Compound metabolized	Compound NOT metabolized	Compound metabolized	Compound metabolized	Compound metabolized	Compound metabolized	Compound metabolized	Compound NOT metabolized	Compound NOT metabolized	Compound metabolized	Compound NOT metabolized	Compound metabolized	Compound metabolized	Compound metabolized	Compound NOT metabolized	Compound metabolized	Compound metabolized	Compound metabolized
C=C[C@H]1CN2CC[C@H]1C[C@H]2[C@H](O)c1ccnc2ccc(OC)cc12.C=C[C@H]1CN2CC[C@H]1C[C@H]2[C@H](O)c1ccnc2ccc(OC)cc12.O.O.O=S(=O)(O)O [QUININE SULFATE]	Compound NOT metabolized	Compound NOT metabolized	Compound NOT metabolized	Compound NOT metabolized	Compound NOT metabolized	Compound NOT metabolized	Compound NOT metabolized	Compound NOT metabolized	Compound NOT metabolized	Compound NOT metabolized	Compound NOT metabolized	Compound metabolized	Compound NOT metabolized	Compound NOT metabolized	Compound metabolized	Compound metabolized	Compound NOT metabolized	Compound NOT metabolized	Compound metabolized	Compound NOT metabolized
CC(N)C12CC3CC(CC(C3)C1)C2 (stereo not given) [RIMANTADINE]	Compound NOT metabolized	Compound NOT metabolized	Compound NOT metabolized	Compound NOT metabolized	Compound NOT metabolized	Compound NOT metabolized	Compound NOT metabolized	Compound NOT metabolized	Compound NOT metabolized	Compound NOT metabolized	Compound NOT metabolized	Compound NOT metabolized	Compound NOT metabolized	Compound NOT metabolized	Compound NOT metabolized	Compound NOT metabolized	Compound NOT metabolized	Compound NOT metabolized	Compound NOT metabolized	Compound NOT metabolized
CCN(C)C(=O)Oc1cccc([C@H](C)N(C)C)c1.O=C(O)C(O)C(O)C(=O)O [RIVASTIGMINE TARTRATE]	Compound NOT metabolized	Compound NOT metabolized	Compound NOT metabolized	Compound metabolized	Compound NOT metabolized	Compound NOT metabolized	Compound NOT metabolized	Compound NOT metabolized	Compound NOT metabolized	Compound NOT metabolized	Compound NOT metabolized	Compound NOT metabolized	Compound NOT metabolized	Compound NOT metabolized	Compound metabolized	Compound NOT metabolized	Compound NOT metabolized	Compound NOT metabolized	Compound NOT metabolized	Compound NOT metabolized

The remaining lines, values ahead:

Bacterial Biotransformation [1]	Bacterial Biotransformation [2]	Bacterial Biotransformation [3]	Bacterial Biotransformation [4]	Bacterial Biotransformation [5]	Bacterial Biotransformation [6]	Bacterial Biotransformation [7]	Bacterial Biotransformation [8]	Bacterial Biotransformation [9]	Bacterial Biotransformation [10]	Bacterial Biotransformation [11]	Bacterial Biotransformation [12]	Bacterial Biotransformation [13]	Bacterial Biotransformation [14]	Bacterial Biotransformation [15]	Bacterial Biotransformation [16]	Bacterial Biotransformation [17]	Bacterial Biotransformation [18]	Bacterial Biotransformation [19]	Bacterial Biotransformation [20]	Compound
Compound NOT metabolized	Compound NOT metabolized	Compound NOT metabolized	Compound NOT metabolized	Compound metabolized	Compound NOT metabolized	Compound NOT metabolized	Compound NOT metabolized	Compound NOT metabolized	Compound NOT metabolized	Compound metabolized	Compound NOT metabolized	Compound NOT metabolized	Compound NOT metabolized	Compound metabolized	Compound NOT metabolized	Compound NOT metabolized	Compound NOT metabolized	Compound metabolized	Compound metabolized	COc1cc(NC(C)CCCN)c2ncccc2c1.O=P(O)(O)O.O=P(O)(O)O (stereo not given) [PRIMAQUINE PHOSPHATE]
Compound metabolized	Compound metabolized	Compound metabolized	Compound NOT metabolized	Compound metabolized	Compound NOT metabolized	Compound NOT metabolized	Compound NOT metabolized	Compound metabolized	Compound NOT metabolized	Compound NOT metabolized	Compound NOT metabolized	Compound NOT metabolized	Compound NOT metabolized	Compound NOT metabolized	Compound NOT metabolized	Compound NOT metabolized	Compound metabolized	Compound NOT metabolized	Compound NOT metabolized	O=C(NC(Cc1cc(=O)[nH]c2ccccc12)C(=O)O)c1ccc(Cl)cc1 (stereo not given) [REBAMIPIDE]
Compound NOT metabolized	Compound metabolized	Compound metabolized	Compound metabolized	Compound metabolized	Compound metabolized	Compound metabolized	Compound metabolized	Compound metabolized	Compound NOT metabolized	Compound metabolized	Compound metabolized	Compound metabolized	Compound metabolized	Compound metabolized	Compound metabolized	Compound NOT metabolized	Compound metabolized	Compound metabolized	Compound metabolized	CCOc1cc(CC(=O)N[C@@H](CC(C)C)c2ccccc2N2CCCCC2)ccc1C(=O)O [REPAGLINIDE]
